Results reported in patent EP2514430B1, “METHOD AND APPARATUS FOR SIMULTANEOUSLY MANUFACTURING ULTRA PURE BETULIN AND HIGHLY PURE BETULINIC ACID FROM BIRCH BARK” (Korea Institute of Energy Research, priority 2009, dated 2011).
≈ marks a conversion by molar mass, not a printed value. Like-named read-outs stand apart in the source and are kept apart here.

Assays:
[1] = Solubility of betulin in single and mixed polar organic solvents; assay type: physicochemical; conditions: organic solvent or mixture
Excerpt: This recrystallization step is an intermediate step for obtaining ultrapure betulin of 99.5% or more and highly-pure betulinic acid of 95% or more. The outer bark and inner bark of a birch tree generally includes betulin, betulinic acid, lupeol (CAS 545-47-1) and polar pigment components. […] When the outer bark of a birch tree is extracted using such a polar organic solvent, a crude extract including 70 ∼ 83% of betulin, 4 ∼ 8% of betulinic acid and residual polar pigment components can be obtained. In this case, in order to use betulin and betulinic acid as intermediate materials for fine chemical products or medical supplies or additives for enhancing antiviral activity, the crude extract is recrystallized.
Preferably, a mixture of organic solvents having a density range of 0.91 g/mL ∼ 1.37 g/mL may be used. […] The crude extract is recrystallized using such a mixture of organic solvents to obtain a high-quality crystallized product (including a secondary crystallized product) including 94 ∼ 96.5% of betulin, 3 ∼ 4% of betulinic acid and residual polar pigment components, and then ultrapure betulin is produced using a 4-bed eluent swing continuous adsorption unit.

herpes simplex viruses = conditions: betulin mixed with acyclovir; Gong et al. 2004; cited from earlier work
[2] = tested on: human prostatic cancer cells (LNCaP, PC-3, and DU-145) and fibroblast cells; conditions: PC-3, DU-145 and fibroblast cells, US 2006/0154903; cited from earlier work

Row | SMILES | solubility ([1]; chloroform, at 60.5°C, read-out: solubility of betulin in chloroform) [mg/mL] | solubility ([1]; chloroform:ethanol 18:82 v/v, density = 0.91 g/mL, at 60.5°C, read-out: solubility of betulin in the mixed solvent of chloroform and ethanol) [mg/mL] | solubility ([1]; chloroform:ethanol 57:43 v/v, density = 1.19 g/mL, at 60.5°C, read-out: solubility of betulin in the mixed solvent of chloroform and ethanol) [mg/mL] | solubility ([1]; chloroform:ethanol 82:18 v/v, density = 1.37 g/mL, at 60.5°C, read-out: solubility of betulin in the mixed solvent of chloroform and ethanol) [mg/mL] | solubility ([1]; ethanol, at 77.1°C, read-out: solubility of betulin in ethanol) [mg/mL] | solubility ([1]; ethanol, at 78°C, read-out: solubility of betulin in ethanol) [mg/mL] | solubility ([1]; ethyl acetate, at 60.5°C, read-out: solubility of betulin in ethyl acetate) [mg/mL] | solubility ([1]; ethyl acetate, at 77.1°C, read-out: solubility of betulin in ethyl acetate) [mg/mL] | solubility ([1]; methanol, at 64.7°C, read-out: solubility of betulin in methanol) [mg/mL] | antiviral effects to herpes simplex viruses (herpes simplex viruses) | inhibiting the growth of human prostatic cancer cells and fibroblast cells [2]
1 | C=C(C)[C@@H]1CC[C@]2(CO)CC[C@]3(C)[C@H](CC[C@@H]4[C@@]5(C)CC[C@H](O)C(C)(C)[C@@H]5CC[C@]43C)[C@@H]12 [betulin] | ≤ 40.7 | 38.6 (≈ 87.2 mM) | 140 (≈ 316 mM) | 163 (≈ 368 mM) | ≤ 23 | ≤ 18.5 | ≤ 40.7 | ≤ 23 | ≤ 6.73 | antiviral effects were provided | –
2 | C=C(C)[C@@H]1CC[C@]2(C(=O)O)CC[C@]3(C)[C@H](CC[C@@H]4[C@@]5(C)CCC(=O)C(C)(C)[C@@H]5CC[C@]43C)[C@@H]12 [butulonic acid] | – | – | – | – | – | – | – | – | – | – | has an effect on inhibiting the growth
